The test system of this assay is HEK 293 cells. Description: Penetration of FAM-labeled cell permeable peptide into HEK 293 cells in alginate gel drops, CLSM imaging. The format is cell-based, Human. To be noted: 15 μg/mL, 5 mins incubation, 1% w/v alginate, 63× oil immersion lens. How it is done:
High resolution observation of reactions between peptides and cells. Not only should proteins and peptides diffuse through the gel, they should also be able to react with cells, for drug screening applications. […] Sodium alginate solution (1% w/v) was mixed with a HEK 293 cell suspension and used as a source solution for single dispensing on 750 μm diameter nDAP anvils using a single robotically controlled rod. The alginate was cured with 1% calcium chloride for 5 min. […] The holder was filled with medium and imaged using a confocal microscope (CLSM). After the cells were imaged, a 15 μg/mL solution of (Arg)9 was introduced using a syringe, displacing the medium. […] The holder enables observation of single cells at high resolution while permitting the exchange of solutions without interfering with the gel anchor on the nDAPs.

We go through one substance from patent US20170298314A1, “NANO-DROPLET PLATE” (Research Foundation of the City University of New York, priority 2016, published 2017).

As for (Arg)9, the “penetration into HEK 293 cells through gel” value is given as “Two cells with cell permeable protein were clearly seen”.
